In ChEMBL document CHEMBL1134974, “Diaza- and triazachrysenes: potent topoisomerase-targeting agents with exceptional antitumor activity against the human tumor xenograft, MDA-MB-435” (Bioorg Med Chem Lett, 2002):

What was measured:
[1] = test system: Mus musculus; experiment: In vivo antitumor activity in NCR-nude-nude mice inoculated with 1.2 E6 -1.5 E6 MDA-MB-435 cells; after day 31 with an average dose of 0.22 mg/mouse (ip); assay type: functional
[2] = test system: Mus musculus; experiment: In vivo antitumor activity in NCR-nude-nude mice inoculated with 1.2 E6 -1.5 E6 MDA-MB-435 cells; after day 7 with an average dose of 0.22 mg/mouse (ip); assay type: functional
[3] = test system: Mus musculus; experiment: In vivo antitumor activity in NCR-nude-nude mice inoculated with 1.2 E6 -1.5 E6 MDA-MB-435 cells; after day 21 with an average dose of 0.22 mg/mouse (ip); assay type: functional
[4] = test system: Mus musculus; experiment: In vivo antitumor activity in NCR-nude-nude mice inoculated with 1.2 E6 -1.5 E6 MDA-MB-435 cells; after day 21 with an average dose of 0.27 mg/mouse (po); assay type: functional
[5] = test system: Mus musculus; experiment: In vivo antitumor activity in NCR-nude-nude mice inoculated with 1.2 E6 -1.5 E6 MDA-MB-435 cells; after day 7 with an average dose of 0.27 mg/mouse (po); assay type: functional
[6] = biological target: T1, DNA topoisomerase 1 (Homo sapiens) (UniProt P11387); experiment: TOP-1 mediated DNA cleavage measured as effective concentration relative to topotecan = 1; assay type: functional
T1 sequence (whole entry): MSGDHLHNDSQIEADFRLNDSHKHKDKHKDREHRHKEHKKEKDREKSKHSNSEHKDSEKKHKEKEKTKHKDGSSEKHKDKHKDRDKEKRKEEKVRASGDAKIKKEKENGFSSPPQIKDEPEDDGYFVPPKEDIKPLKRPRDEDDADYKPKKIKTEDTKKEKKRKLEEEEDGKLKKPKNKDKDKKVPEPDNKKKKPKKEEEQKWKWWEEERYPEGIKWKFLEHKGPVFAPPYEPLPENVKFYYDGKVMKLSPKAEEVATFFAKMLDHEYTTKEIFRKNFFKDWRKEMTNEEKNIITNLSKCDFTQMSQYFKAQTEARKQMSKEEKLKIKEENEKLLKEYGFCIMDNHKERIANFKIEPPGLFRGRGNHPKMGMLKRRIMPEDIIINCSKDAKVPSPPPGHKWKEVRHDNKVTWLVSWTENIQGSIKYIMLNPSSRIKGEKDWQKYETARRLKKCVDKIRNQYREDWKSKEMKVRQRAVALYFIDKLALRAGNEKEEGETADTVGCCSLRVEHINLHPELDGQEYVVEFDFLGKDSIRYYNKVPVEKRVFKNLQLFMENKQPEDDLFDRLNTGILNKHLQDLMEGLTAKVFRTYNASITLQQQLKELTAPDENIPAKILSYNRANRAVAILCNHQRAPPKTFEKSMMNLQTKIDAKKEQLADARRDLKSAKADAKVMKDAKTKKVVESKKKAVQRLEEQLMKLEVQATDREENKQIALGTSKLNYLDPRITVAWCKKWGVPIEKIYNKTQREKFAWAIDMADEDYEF

[7] = test system: Mus musculus; experiment: In vivo antitumor activity in NCR-nude-nude mice inoculated with 1.2 E6 -1.5 E6 MDA-MB-435 cells; after day 31 with an average dose of 0.27 mg/mouse (po); assay type: functional
[8] = test system: RPMI 8402; experiment: Cytotoxicity using camptothecin-resistant variant of RPM18402 (CPT-K5) possessing functional, but mutant TOP-1; assay type: cell-based; conditions: Homo sapiens
[9] = test system: RPMI 8402; experiment: Cytotoxicity against human lymphoblast tumor cell line RPM18402; assay type: functional, cell-based
[10] = biological target: DNA topoisomerase II (Homo sapiens) (UniProt P11388+Q02880); experiment: TOP-2 mediated DNA cleavage measured as effective concentration relative to VM26; assay type: functional
[11] = test system: Mus musculus; experiment: In vivo antitumor activity in NCR-nude-nude mice inoculated with 1.2 E6 -1.5 E6 MDA-MB-435 cells; after day 13 with an average dose of 0.22 mg/mouse (ip); assay type: functional
[12] = test system: Mus musculus; experiment: In vivo antitumor activity in NCR-nude-nude mice inoculated with 1.2 E6 -1.5 E6 MDA-MB-435 cells; after day 13 with an average dose of 0.27 mg/mouse (po); assay type: functional
[13] = test system: Mus musculus; experiment: In vivo antitumor activity in NCR-nude-nude mice inoculated with 1.2 E6 -1.5 E6 MDA-MB-435 cells after day 21 with an average dose of 0.78 mg/mouse(po); assay type: functional
[14] = test system: Mus musculus; experiment: In vivo antitumor activity in NCR-nude-nude mice inoculated with 1.2 E6 -1.5 E6 MDA-MB-435 cells after day 31 with an average dose of 0.73 mg/mouse (ip); assay type: functional
[15] = test system: Mus musculus; experiment: In vivo antitumor activity in NCR-nude-nude mice inoculated with 1.2 E6 -1.5 E6 MDA-MB-435 cells after day 7 with an average dose of 0.73 mg/mouse (ip); assay type: functional
[16] = test system: Mus musculus; experiment: In vivo antitumor activity in NCR-nude-nude mice inoculated with 1.2 E6 -1.5 E6 MDA-MB-435 cells after day 31 with an average dose of 0.78 mg/mouse (po); assay type: functional
[17] = test system: Mus musculus; experiment: In vivo antitumor activity in NCR-nude-nude mice inoculated with 1.2 E6 -1.5 E6 MDA-MB-435 cells after day 7 with an average dose of 0.78 mg/mouse (po); assay type: functional
[18] = test system: Mus musculus; experiment: In vivo antitumor activity in NCR-nude-nude mice inoculated with 1.2 E6 -1.5 E6 MDA-MB-435 cells after day 21 with an average dose of 0.73 mg/mouse (ip); assay type: functional
[19] = test system: Mus musculus; experiment: In vivo antitumor activity in NCR-nude-nude mice inoculated with 1.2 E6 -1.5 E6 MDA-MB-435 cells after day 13 with an average dose of 0.78 mg/mouse (po); assay type: functional
[20] = test system: Mus musculus; experiment: In vivo antitumor activity in NCR-nude-nude mice inoculated with 1.2 E6 -1.5 E6 MDA-MB-435 cells after day 13 with an average dose of 0.73 mg/mouse (ip); assay type: functional
[21] = test system: Mus musculus; experiment: In vivo antitumor activity in NCR-nude-nude mice inoculated with 1.2 E6 -1.5 E6 MDA-MB-435 cells; after day 13 with an average dose of 13.88 mg/mouse (ip); assay type: functional
[22] = test system: Mus musculus; experiment: In vivo antitumor activity in NCR-nude-nude mice inoculated with 1.2 E6 -1.5 E6 MDA-MB-435 cells; after day 21 with an average dose of 13.88 mg/mouse (ip); assay type: functional
[23] = test system: Mus musculus; experiment: In vivo antitumor activity in NCR-nude-nude mice inoculated with 1.2 E6 -1.5 E6 MDA-MB-435 cells; after day 31 with an average dose of 13.88 mg/mouse (ip); assay type: functional
[24] = test system: Mus musculus; experiment: In vivo antitumor activity in NCR-nude-nude mice inoculated with 1.2 E6 -1.5 E6 MDA-MB-435 cells; after day 7 with an average dose of 13.88 mg/mouse (ip); assay type: functional

REC [6]	REC [10]	Compound	IC50 [8]	IC50 [9]	other results
0.3	> 100	COc1cc2c(=O)n(CCN(C)C)c3c4cc5c(cc4nnc3c2cc1OC)OCO5	600 nM	1 nM	Average tumor volume [1]: 403 mm**3; Average tumor volume [2]: 167 mm**3; Average tumor volume [3]: 252 mm**3; Average tumor volume [4]: 207 mm**3; Average tumor volume [5]: 154 mm**3; Average tumor volume [7]: 200 mm**3; Average tumor volume [11]: 211 mm**3; Average tumor volume [12]: 183 mm**3
1	> 100	CCCCn1c(=O)c2cc(OC)c(OC)cc2c2nnc3cc4c(cc3c21)OCO4	10000 nM	4 nM	
200	> 100	COc1cc2c(=O)n(CC3CCCO3)c3c4cc5c(cc4ncc3c2cc1OC)OCO5 (configuration not stated)	> 10000 nM	150 nM	
	> 100	COc1cc2c(=O)n(CCN(C)C)c3c4cc5c(cc4ncc3c2cc1OC)OCO5	900 nM	2 nM	Average tumor volume [13]: 99 mm**3; Average tumor volume [14]: 40 mm**3; Average tumor volume [15]: 123 mm**3; Average tumor volume [16]: 62 mm**3; Average tumor volume [17]: 159 mm**3; Average tumor volume [18]: 65 mm**3; Average tumor volume [19]: 148 mm**3; Average tumor volume [20]: 84 mm**3
1000	> 100	COc1cc2c(=O)n(C(C)CN(C)C)c3c4cc5c(cc4nnc3c2cc1OC)OCO5 (configuration not stated)	3600 nM	260 nM	
> 1000	> 100	COc1cc([C@@H]2c3cc4c(cc3[C@@H](O[C@@H]3O[C@@H]5CO[C@@H](c6cccs6)O[C@H]5[C@H](O)[C@H]3O)[C@H]3COC(=O)[C@H]23)OCO4)cc(OC)c1O [TENIPOSIDE]	280 nM	220 nM	
30	> 100	COc1cc2c(=O)n(CC3CCCO3)c3c4cc5c(cc4nnc3c2cc1OC)OCO5 (configuration not stated)	> 10000 nM	10 nM	
1	> 100	CC[C@@]1(O)C(=O)OCc2c1cc1n(c2=O)Cc2cc3c(CN(C)C)c(O)ccc3nc2-1 [TOPOTECAN]	> 10000 nM	12 nM	
> 1000	> 100	COc1cc2c(=O)n(C(C)CN(C)C)c3c4cc5c(cc4ncc3c2cc1OC)OCO5 (configuration not stated)	3400 nM	570 nM	

Compound	REC [6]	REC [10]	IC50 [8]	IC50 [9]	other results
CCc1c2c(nc3ccc(OC(=O)N4CCC(N5CCCCC5)CC4)cc13)-c1cc3c(c(=O)n1C2)CCC(=O)C3(O)CC (configuration not stated)		> 100	> 10000 nM		Average tumor volume [21]: 116 mm**3; Average tumor volume [22]: 36 mm**3; Average tumor volume [23]: 11 mm**3; Average tumor volume [24]: 118 mm**3
